Earlier results as cited in patent publication US10926237B2, “Soluble corrosion resistant sol-gel” (THE BOEING COMPANY, priority 2018, dated 2021).

## Sc1nnc(S)s1 [2,5-Dimercapto-1,3,4-thiadiazole, 2,5-dimercapto-1,3,4-thiadiazole]
  water solubility (in words): water soluble
